Test results: PMC4129416, “YLT192, a Novel, Orally Active Bioavailable Inhibitor of VEGFR2 Signaling with Potent Antiangiogenic Activity and Antitumor Efficacy in Preclinical Models” (Scientific Reports, 2014)

System: HCT116 cells
Assay: Western blot of oncogenic signaling pathways
Format: cell-based, human
Conditions: 48 h
Experimental: Figure 4 Inhibitory effects of YLT192 on tumor cells. (A) YLT192 inhibited U251 and HCT116 cells proliferation. The EdU incorporation assay was conducted on U251 and HCT116 cells after treated with YLT192 for 24 hours. The EdU-positive (red fluorescent staining) cells and Hoechst staining (blue fluorescent staining) cells represented proliferating and total cells in the fluorescent images, respectively (100×). Quantification was shown on the right panels. (B) YLT192 induced apoptosis of HCT116 cells. HCT116 cells were treated with YLT192 or vehicle for 48 hours followed by flow cytometric analysis of annexin V-FITC and PI staining. […] Typical apoptosis-related proteins caspase 3 and Bax were detected by western blot. […] U251 and HCT116 cells were treated with YLT192 or vehicle for 48 hours and the expression of protein in different signaling pathways were detected by western blot with specific antibodies. […]
To gain further insight into the molecular mechanism of the inhibitory effects of YLT192 on tumor cells we evaluated the expression of p44/42 MAPK, STAT3, AKT, and mammalian target of rapamycin (mTOR) in U251 and HCT116 cells 48 h after treatment.
Supplementary Figure S8. […] U251 and HCT116 cells were treated with YLT192 or vehicle for 48 hours and the expression of protein in different signaling pathways were detected by western blot with specific antibodies. […]

CNC(=O)c1cc(Oc2ccc(NC(=O)c3cccc(OC)c3)cc2)ccn1 [YLT192]
expression of phosphorylated p44/42 MAPK, STAT3, AKT, and mTOR: dramatically decreased
